From patent EP1580187A1, “Apoptogenic and antiproliferative analogs of ceramide” (Deigner, Hans-Peter, priority 2004, dated 2005)
Read-outs that look alike come from different tables or passages of the source.

Tests used:
Assay type in all cases: cell-based
[1] = target: T1, acidic sphingomyelinase (aSMase) (Homo sapiens, UniProt P17405); assay: SMase activity determination (activation of aSMase in cells, NBD-sphingomyelin hydrolysis); conditions: HT 29 cells, mean (MW), basal activity 278,4 ± 41,3, unit only printed
T1 construct: endogenous in cells; host or cells: HT 29 (human adenocarcinoma cell line)
T1 sequence (P17405 47-631): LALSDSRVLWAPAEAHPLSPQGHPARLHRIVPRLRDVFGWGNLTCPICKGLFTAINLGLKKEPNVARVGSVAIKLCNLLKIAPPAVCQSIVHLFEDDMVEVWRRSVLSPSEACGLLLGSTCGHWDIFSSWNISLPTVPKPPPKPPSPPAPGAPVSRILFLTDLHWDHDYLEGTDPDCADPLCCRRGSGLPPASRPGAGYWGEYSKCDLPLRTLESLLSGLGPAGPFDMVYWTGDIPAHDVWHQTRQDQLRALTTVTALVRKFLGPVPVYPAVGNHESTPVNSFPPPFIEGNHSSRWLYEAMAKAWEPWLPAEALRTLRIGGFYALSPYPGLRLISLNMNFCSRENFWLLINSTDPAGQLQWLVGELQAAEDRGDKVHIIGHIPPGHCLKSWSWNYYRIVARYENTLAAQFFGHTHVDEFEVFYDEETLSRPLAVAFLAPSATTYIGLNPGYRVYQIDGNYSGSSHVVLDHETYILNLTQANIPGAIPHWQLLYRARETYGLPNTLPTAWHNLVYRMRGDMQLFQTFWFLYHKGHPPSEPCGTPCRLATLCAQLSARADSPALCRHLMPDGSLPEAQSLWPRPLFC
Method: Activities of aSMase and nSMase were determined by hydrolysis of a fluorogenic C12-analogue substrate [(7-Nitro-2-1,3-benzoxadiazol-4-yl)amino-dodecyl-D-erythro-sphingosine, NBD-sphingomyelin, Molecular Probes, subsequent separation of the labelled NBD ceramide analog by thin layer chromatography and data analysis at conditions as described in detail previously.
(§1) Induction of apoptosis was determined in the human adenocarcinoma cell line HT 29 as described in Example 1; spontaneous apoptosis rate was 2.48 % ± 0.58. The activation of acidic sphingomyelinase (aSMase) was analyzed in the same cell line as described in Example 1, basal activity amounts to 278,4 pmolµg^-1min^-1 ± 41,3.

[2] = test system: human adenocarcinoma cell line HT 29; assay: Induction of apoptosis (YOPRO-1 / Hoechst 33342 staining, count of apoptotic cells); conditions: HT 29 cells, mean (MW), spontaneous apoptosis rate 2.48 % ± 0.58, unit only printed
Method: (§2) Human colon carcinoma cells HT-29 were purchased from ATCC and cultivated under standard conditions (37°C, 5% CO2, McCoy 5A medium, 10% fetal calf serum, penicillin, streptomycin). For experimentation, cells were seeded in cell culture dishes at appropriate density, stimulated and analysed as described in the following section.
Apoptotic macrophages and colon carcinoma cells were identified by microscopic observation of typical morphological changes (blebbing, generation of apoptotic bodies) and quantitated by YOPRO-1 staining and Hoechst 33342 dye. The percentage of apoptotic cells was counted using a microscope fitted with mercury light source and fluorescence assembly in combination with a computer-assisted morphometry system. Apoptosis was confirmed by PARP cleavage detected by Western Blotting and single cell electrophoresis (COMET-assay).
as §1

[3] = test system: HT-29 colon carcinoma cells; assay: Proliferation (DNA synthesis, colorimetric BrdU-ELISA); conditions: Homo sapiens
Method: as §2
Quantitative determination of DNA synthesis in replicating cells was analyzed using commercial available test kits (colorimetric BrdU-ELISA, Roche-Diagnostics) according to the manufacturer's instructions. For these experiments, HT-29 colon carcinoma cells were seeded in 96-well plates at 40% confluence, cultivated overnight (1% FCS), incubated for 16 h with the test compounds (concentration range: three orders of magnitude), pulsed labelled with BrdU and fixed. The amount of incorporated BrdU was analysed using specific antibodies (Roche Diagnostics, Mannheim, Germany) and subsequent colorimetric reaction. The rate of DNA-synthesis in untreated control cells with standard medium was determined and compared with that in a medium contained the test compounds.
Semiconfluent HT-29 cells were incubated with compound 4 at concentration as indicated over night and DNA synthesis was analyzed on the basis of BrdU-incorporation and subsequent immunological quantification. Compound 4 inhibited cellular proliferative activity with an apparent IC50 of among 6,7 µM. […] Due to previous calculation using dependent variables over several orders of magnitudes, no standard deviation is given in Table 1 presenting the averaged half maximal concentrations for inhibition of proliferative activity.

[4] = HT-29 cells, BrdU incorporation, averaged half maximal concentrations, no standard deviation, read-out: Anti-Prolif. IC50
[5] = semiconfluent HT-29 cells, incubation over night, BrdU-incorporation, read-out: apparent IC50 / half maximal antiproliferative activity

SMILES | aSMase-activity 5 μM MW [1] | aSMase-activity 20 μM MW [1] | Induction of apoptosis 5 μM MW [2] | Induction of apoptosis 10 μM MW [2] | Induction of apoptosis 30 μM MW [2] | IC50 [3, 4] [µM] | IC50 [3, 5] [µM]
CCCCCCCCCCCCC/C=C/[C@@H](O)[C@H](CO)NC(=O)CCCCC [Ceramide C6, reference compound] | 427,3 pmolµg^-1min^-1 | 743,4 pmolµg^-1min^-1 | 2,6% | 6,4% | 12,4% | 4 | ~4
CCCCCC(=O)N[C@@H](CO)[C@@H](O)c1ccc([N+](=O)[O-])cc1 [Compound 1, Hexanoic acid [(1S,2S)-2-hydroxy-1-hydroxymethyl-2-(4-nitrophenyl)-ethyl]-amide] | 541,3 pmolµg^-1min^-1 | 631,0 pmolµg^-1min^-1 | 1,3% | 8,4% | 8,9% | 2.4 | –
CCCCCC(=O)N[C@@H](CO)[C@H](O)C1=CCCC1 [Compound 2, Hexanoic acid ((1S,2R)-2-cyclopent-1-enyl-2-hydroxy-1-hydroxymethyl-ethyl)-amide] | 347,0 pmolµg^-1min^-1 | 1185,4 pmolµg^-1min^-1 | 15,7% | 4,9% | 5,9% | 4.6 | –
CCCCCC(=O)N[C@@H](CO)[C@H](O)/C1=C/CCCCCC1 [Compound 3, Hexanoic acid [(1S,2R)-2-((E)-cyclooct-1-enyl)-2-hydroxy-1-hydroxymethyl-ethyl]-amide] | 403,8 pmolµg^-1min^-1 | 1108,4 pmolµg^-1min^-1 | 2,9% | 7,4% | 5,7% | 3.1 | –
CC(C)(C)OC(=O)N1[C@H]([C@H](O)C2=CCCC2)COC1(C)C [Compound 4, (S)-4-((R)-Cyclopent-1-enyl-hydroxy-methyl)-2,2-dimethyloxazolidine-3-carboxylic acid tert-butyl ester] | 574,2 pmolµg^-1min^-1 | 812,7 pmolµg^-1min^-1 | 3,95% | 8,5% | 10,2% | 6.7 | ~6.7
CC(C)(C)OC(=O)N1[C@H]([C@H](O)/C2=C/CCCCCC2)COC1(C)C [Compound 5, (S)-4-[(R)-((E)-Cyclooct-1-enyl)-hydroxy-methyl]-2,2-dimethyloxazolidine-3-carboxylic acid tert-butyl ester] | 447,3 pmolµg^-1min^-1 | 967,3 pmolµg^-1min^-1 | 6,4% | 7,7% | 9,2% | 3.2 | –
